Measured values reported in patent US20030109418A1, “Methods for identifying compounds for inhibition of neoplastic lesions, and pharmaceutical compositions containing such compounds” (priority 1999, published 2003).
Counter-ions that a name gives are not always drawn.

Legend:
[1] = system: cGMP PDE purified from human colon HT-29 cultured tumor cells; assay: cGMP PDE inhibition assay; type: biochemical; conditions: for IC50: read-out: IC50 for inhibition of cGMP PDE, HT-29 cell enzyme
[2] = system: SW-480 colon adenocarcinoma cells; assay: Apoptosis fold induction protocol (DNA fragmentation ELISA); conditions: Homo sapiens
[3] = system: PDE4 purified from human colon HT-29 cultured tumor cells; assay: PDE4 inhibition assay; type: biochemical; conditions: HT-29 cell enzyme
[4] = system: NRK, Kidney (non ras-transformed); assay: Growth inhibition, SRB assay, NRK; type: cell-based
[5] = molecular target: T1, purified cyclooxygenase (Type 1, COX-I) from ram seminal vesicles (Ovis aries, UniProt P05979); assay: COX inhibition assay, purified cyclooxygenase; type: biochemical; conditions: for inhibition at 100 µM: read-out: Cyclooxygenase inhibitory activity, % Inhibition at 100 μM
T1 construct: using purified cyclooxygenase from ram seminal vesicles as described previously; tissue Cayman Chemical, Ann Arbor, Mich; (named in the general protocol only); host or cells: ram seminal vesicles
T1 sequence (P05979 25-600): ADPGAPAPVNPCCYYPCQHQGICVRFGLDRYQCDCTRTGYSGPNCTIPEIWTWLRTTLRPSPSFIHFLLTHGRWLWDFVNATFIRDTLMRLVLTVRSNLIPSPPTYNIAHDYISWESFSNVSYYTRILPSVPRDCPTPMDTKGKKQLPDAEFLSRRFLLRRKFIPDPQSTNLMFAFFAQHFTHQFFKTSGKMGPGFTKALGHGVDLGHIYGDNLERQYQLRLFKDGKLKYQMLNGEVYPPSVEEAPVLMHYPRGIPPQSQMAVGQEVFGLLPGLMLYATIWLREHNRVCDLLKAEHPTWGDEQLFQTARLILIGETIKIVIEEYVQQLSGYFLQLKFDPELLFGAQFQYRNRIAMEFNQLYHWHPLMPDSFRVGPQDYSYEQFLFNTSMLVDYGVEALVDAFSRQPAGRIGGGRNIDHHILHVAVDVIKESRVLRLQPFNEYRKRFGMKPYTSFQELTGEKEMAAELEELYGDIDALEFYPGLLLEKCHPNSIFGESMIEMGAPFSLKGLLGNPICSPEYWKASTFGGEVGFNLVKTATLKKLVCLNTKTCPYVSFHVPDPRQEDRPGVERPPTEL

28-day study in rats = type: in vivo, rat
[6] = system: SW-480 colon adenocarcinoma cells; assay: Apoptosis induction determined by morphology, SW-480; type: cell-based, human
Source text: Following treatment with a compound, cultures can be assayed for apoptosis and necrosis by florescent microscopy following labeling with acridine orange and ethidium bromide. The method for measuring apoptotic cell number has previously been described by Duke & Cohen, “Morphological And Biochemical Assays Of Apoptosis,” Current Protocols In Immunology, Coligan et al., eds., 3.17.1-3.17.16 (1992, which is incorporated herein by reference).
For example, floating and attached cells can be collected by trypsinization and washed three times in PBS. Aliquots of cells can be centrifuged. The pellet can then be re-suspended in media and a dye mixture containing acridine orange and ethidium bromide prepared in PBS and mixed gently. The mixture can then be placed on a microscope slide and examined for morphological features of apoptosis.
In addition, the percent apoptosis for Compound I in SW-480 is shown in Table 12 at various drug concentrations.

[7] = system: panel of cultured human cell lines derived from various tissue origins; assay: Growth inhibition, neutral red assay, whole panel; type: cell-based; conditions: all cell lines of the panel, read-out: GI50 value calculated for all cell lines
Method: (§1) Compound I's activity is not confined to activity against colon cancer cell lines or animal models of colon cancer. It has a broad range of anti-neoplastic effects in various neoplastic cell lines. Various types of human cancer cell lines were propagated under sterile conditions in RPMI 1640 medium with 10% fetal bovine serum, 2 mM L-glutamine and sodium bicarbonate. To determine growth inhibitory effects of Compound I, cells were seeded in 96-well plates at a density of 1000 cells per well. Twenty-four hours after plating, the cells were dosed with various concentrations of the free base of Compound I solubilized in DMSO (final concentration 0.1%). The effect of the drug on tumor cell growth was determined using the neutral red cytotoxicity assay following five days of continuous treatment. Neutral red is a dye that is selectively taken up by viable cells by an ATP-dependent transport mechanism.

NCI-H23 = assay: Growth inhibition, neutral red assay, NCI-H23; type: cell-based, human; conditions: free base, five days
Method: as §1

[8] = system: LNCaP prostate tumor cell line; assay: Histone-associated DNA fragmentation in prostate tumor cells; type: cell-based; conditions: 50 μM free base, after 24 hours, sustained up to 4 days
Method: The androgen-sensitive prostate tumor cell line, LNCaP (from ATCC (Rockville, Md.)) was propogated under standard conditions using […] medium containing 5% fetal calve serum and 2 mM glutamine. Primary prostate epithelial cell cultures (PrEC) derived from normal prostate (from Clonetics Inc. (San Diego, Calif.)) were grown under the same conditions as the tumor cell line except a serum-free medium optimized for the growth of such cultures was used (Clonetics Inc). For the experiments, LNCaP or PrEC cells were seeded in 96 well plates at a density of 10,000 cells per well. After 24 hours, the cells were treated with either vehicle (0.1% DMSO) or 50 μM Compound I (free base) solubilized in DMSO. After various drug treatment times (4, 24, 48, 72, or 99 hours) the cells were lysed and processed for measurement of histone-associated DNA as an indicator of apoptotic cell death (see, Piazza et al., Cancer Research 57: 2452-2459, 1997).
This is in marked contrast to conventional chemotherapeutics that induce apoptosis or necrosis in rapidly growing normal and neoplastic cells alike.

[9] = dog, in vivo
DU145 = assay: Growth inhibition, neutral red assay, DU145; type: cell-based, human; conditions: free base, five days
Method: as §1

K-562 = assay: Growth inhibition, neutral red assay, K-562; type: cell-based; conditions: Homo sapiens, K562; HCl salt
Method: as §1

## CC1=C(CC(=O)O)c2cc(F)ccc2/C1=C\c1ccc(S(C)(=O)=O)cc1 [Exisulind, 5-fluoro-2-methyl-1-(p-methylsulfonylbenzylidene)-3-indenylacetic acid]
[1]; 10 μM
  cGMP PDE inhibitory activity, % Inhibition at 10 μM: 39%
[1]; qualitative activity profile
  PDE Inhibition: ++
[1]
  IC50: 56 µM
[2]; SW480, read-out: Apoptosis-inducing activity, Fold induction at 100 μM, 100 μM, cell line not given
  fold induction at 100 µM: < 2
[3]
  IC50: 181 µM
[4]
  IC50: 180 µM
[5]; qualitative activity profile
  COX Inhibition: −
[5]
  inhibition at 100 µM: < 25%

## CC1=C(CC(=O)NCc2ccccc2)c2cc(F)ccc2/C1=C\c1ccncc1 [Compound I, (Z)-5-fluoro-2-methyl-(4-pyridylidene)-3-(N-benzyl)indenylacetamide hydrochloride]
28-day study in rats; rats, 2000 mg/kg/day
  organ weight data, 28-day study: statistically significant increase in liver weights
28-day study in rats; rats, 50, 500 and 2000 mg/kg/day
  clinical observations, 28-day study: no abnormal clinical observations
[1]
  IC50: 0.68 µM
[6]; 0.35 μM
  % Apoptosis: 16%
[6]; 0.7 μM
  % Apoptosis: 27%
[6]; 1.5 μM
  % Apoptosis: 88%
[2]; SW480, read-out: DNA fragmentation EC50
  EC50: 15 µM
[7]
  GI50: 1 to 2 µM
NCI-H23; Homo sapiens, NCI-H23, 120 h
  GI50: 1.7 µM
NCI-H23
  GI90 μM, NCI-H23: 2.5 µM
[8]
  histone-associated fragmented DNA in LNCaP: significant increase in fragmented DNA
[9]; 1000 mg/kg
  signs of toxicity, single dose in capsules: no signs of toxicity
[9]; 1000 mg/kg/day
  drug-related effects, single and seven consecutive doses: At no time in either dosing phase were any obvious signs of drug-related effects observed
DU145; Homo sapiens, DU-145, 120 h
  GI50: 1.6 µM
DU145
  GI90 μM, DU145: 2.8 µM
K-562
  GI50: 1.8 µM
[5]
  inhibition at 100 µM: < 25%
